Data: US8193189B2, “Quinoxaline derivatives as tyrosine kinase activity inhibitors” (Novartis AG, priority 2007, dated 2012)

Columns and labels:
[1] = test system: JAK/STAT pathway (JAK1/JAK2-dependent nuclear translocation of STAT1-GFP); test: Inhibition of the JAK/STAT pathway: IFN-γ stimulated nuclear translocation of STAT1-GFP in HT1080 fibrosarcoma cells; type: cell-based; settings: Homo sapiens, HT-1080; HT1080 STAT1-GFP cells, 100 ng/ml IFN-γ 2 hours, compound added 30 min before; read-out: STAT1translo IC50
Method in brief: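 Readout is the nuclear-minus-cytoplasmic GFP-STAT1 intensity, imaged at 10× using Hoechst-defined nuclear masks over at least 1000 cells/well. Stably transfected HT1080 fibrosarcoma cells were pretreated 30 min with compound (final 0.003–10 μM, 0.1% DMSO) before IFN-γ challenge.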

GST-TYK2(888-1187) = molecular target: T1, GST-TYK2(888-1187) (Homo sapiens, UniProt P29597); test: EPK JAK-family kinases profiling assay (Caliper mobility shift), TYK2; type: biochemical; settings: ATP 30 μM, 40 nM kinase
T1 construct: GST-TYK2(888-1187); made in house
T1 sequence (P29597 888-1187): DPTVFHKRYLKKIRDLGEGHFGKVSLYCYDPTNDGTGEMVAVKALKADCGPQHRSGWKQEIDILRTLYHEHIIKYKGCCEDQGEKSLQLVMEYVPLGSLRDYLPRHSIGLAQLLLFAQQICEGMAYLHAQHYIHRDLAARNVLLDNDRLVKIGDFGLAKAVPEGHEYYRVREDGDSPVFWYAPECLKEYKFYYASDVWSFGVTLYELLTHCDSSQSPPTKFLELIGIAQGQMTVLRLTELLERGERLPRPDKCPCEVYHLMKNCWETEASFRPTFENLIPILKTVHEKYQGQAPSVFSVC
From the text: All four kinases of the JAK-family kinases were used as purified recombinant GST-fusion proteins, containing the active kinase domains. GST-JAK1(866-1154), GST-JAK3(811-1124), and GST-TYK2(888-1187) were expressed and purified by affinity chromatography at the EPK biology unit. GST-JAK2(808-1132) was purchased from Invitrogen (Carlsbad, USA, #4288).
The kinase assays were based on the Caliper mobility shift assay using the LabChip 3000 systems. This technology is similar to capillary electrophoresis and uses charge driven separation of substrate and product in a microfluidic chip.
All kinase reactions were performed in 384 well microtiter plates in a total reaction volume of 18 μl. The assay plates were prepared with 0.1 μl per well of test compound in the appropriate test concentration, as described under the section “preparation of compound dilutions”. The reactions were started by combining 9 μl of substrate mix (consisting of peptide and ATP) with 9 μl of kinase dilution. The reactions were incubated for 60 minutes at 30° C. and stopped by adding 70 μl of stop buffer (100 mM Hepes, 5% DMSO, 0.1% Coating reagent, 10 mM EDTA, 0.015% Brij 35).
Fluorescently labeled synthetic peptides were used as substrates in all reactions. […] Specific assay conditions are described in Table 1:
The terminated reactions were transferred to the Caliper LabChip 3000 reader and the turnover of each reaction was measured by determining the substrate/product ratio.
Test compounds were dissolved in DMSO (10 mM) and transferred into 1.4 mL flat bottom or V-shaped Matrix tubes carrying a unique 2D matrix chip by individual compound hubs. The numbers of these chips were distinctively linked to the individual compound identification numbers. The stock solutions were stored at −20° C. if not used immediately. For the test procedure the vials were defrosted and identified by a scanner whereby a working sheet was generated that guided the subsequent working steps.
Compound dilutions were made in 96 well plates. This format enabled the assay of maximally 40 individual test compounds at 8 concentrations (single points) including 4 reference compounds. The dilution protocol included the production of pre-dilution plates, master plates and assay plates:
Pre-dilution plates: 96 polypropylene well plates were used as pre-dilution plates. A total of 4 pre-dilution plates were prepared including 10 test compounds each on the plate positions A1-A10, one standard compound at A11 and one DMSO control at A12. All dilution steps were done on a HamiltonSTAR robot.
Master plates: 100 μL of individual compound dilutions including standard compound and controls of the 4 “pre-dilution plates” were transferred into a 384 “master plate” including the following concentrations 1′820, 564, 182, 54.6, 18.2, 5.46, 1.82 and 0.546 μM, respectively in 90% of DMSO.
Assay plates: Identical assay plates were then prepared by pipetting 100 nL each of compound dilutions of the master plates into 384-well “assay plates”. […] The preparation of the master plates were handled by the Matrix PlateMate Plus robot and replication of assay plates by the HummingBird robot.

GST-JAK2(808-1132) = molecular target: T2, GST-JAK2(808-1132) (Homo sapiens, UniProt O60674); test: EPK JAK-family kinases profiling assay (Caliper mobility shift), JAK2; type: biochemical; settings: ATP 20 μM, 1.8 nM kinase
T2 construct: GST-JAK2(808-1132); purchased Invitrogen (Carlsbad, USA) #4288
Method in brief: (§1)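 Turnover was read as substrate/product ratio after mobility-shift capillary-like separation of each reaction, run for 60 min at 30 °C with GST-tagged kinase domain, labelled peptide and ATP, and terminated with EDTA stop buffer.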

GST-JAK1(866-1154) = molecular target: T3, GST-JAK1(866-1154) (Homo sapiens, UniProt P23458); test: EPK JAK-family kinases profiling assay (Caliper mobility shift), JAK1; type: biochemical; settings: ATP 40 μM, 50 nM kinase
T3 construct: GST-JAK1(866-1154); made in house
Method in brief: as §1

T2 sequence (O60674 808-1132): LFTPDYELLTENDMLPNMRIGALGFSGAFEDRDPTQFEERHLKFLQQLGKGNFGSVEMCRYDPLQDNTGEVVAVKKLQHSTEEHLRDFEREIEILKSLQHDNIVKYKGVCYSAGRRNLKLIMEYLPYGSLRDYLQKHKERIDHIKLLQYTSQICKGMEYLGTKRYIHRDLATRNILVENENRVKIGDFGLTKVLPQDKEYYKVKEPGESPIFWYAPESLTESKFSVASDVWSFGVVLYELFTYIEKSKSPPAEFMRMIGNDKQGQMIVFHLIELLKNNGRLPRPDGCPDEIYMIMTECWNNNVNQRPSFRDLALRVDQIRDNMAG
T3 sequence (P23458 866-1154): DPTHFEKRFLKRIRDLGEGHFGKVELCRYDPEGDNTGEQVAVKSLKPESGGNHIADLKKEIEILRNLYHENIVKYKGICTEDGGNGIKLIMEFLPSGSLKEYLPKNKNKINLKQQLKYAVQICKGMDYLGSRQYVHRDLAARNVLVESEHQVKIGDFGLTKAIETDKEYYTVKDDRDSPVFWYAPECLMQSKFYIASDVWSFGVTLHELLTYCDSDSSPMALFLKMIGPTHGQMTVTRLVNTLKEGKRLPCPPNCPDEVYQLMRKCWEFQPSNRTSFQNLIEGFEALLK

Row | SMILES | IC50 [1] [µM] | IC50 (GST-TYK2(888-1187)) [µM] | IC50 (GST-JAK2(808-1132)) [µM] | IC50 (GST-JAK1(866-1154)) [µM]
1 | Fc1cc(-c2cccc3ncc(-c4cnn(CC5CCCNC5)c4)nc23)cc(F)c1CN1CCOCC1 (racemic) [Example 135, (rac)-8-(3,5-Difluoro-4-morpholin-4-ylmethyl-phenyl)-2-(1-piperidin-3-ylmethyl-1H-pyrazol-4-yl)-quinoxaline] | 1.35 | 0.51 | 0.0061 | 0.24
2 | Cc1cc(-c2cccc3ncc(-c4cnn(C5CCNCC5)c4)nc23)ccc1C(=O)N1CCOCC1 [Example 100, {2-Methyl-4-[3-(1-piperidin-4-yl-1H-pyrazol-4-yl)-quinoxalin-5-yl]-phenyl}-morpholin-4-yl-methanone] | 12.6 | 1.2 | 0.13 | 1.4
3 | CN1CCN(c2ccc(-c3cnc4cccc(-c5ccc(CN6CCS(=O)(=O)CC6)cc5)c4n3)cn2)CC1 [Example 109, 8-[4-(1,1-Dioxido-thiomorpholin-4-ylmethyl)-phenyl]-2-[6-(4-methyl-piperazin-1-yl)-pyridin-3-yl]-quinoxaline] | 3.06 | 0.36 | 0.024 | 0.15
4 | Cc1cc(-c2cnc3cccc(-c4cc(F)c(CN5CCOCC5)c(F)c4)c3n2)ccc1C(=O)NCCO [Example 120, 4-[8-(3,5-Difluoro-4-morpholin-4-ylmethyl-phenyl)-quinoxalin-2-yl]-N-(2-hydroxy-ethyl)-2-methyl-benzamide] | 1.73 | 0.35 | 0.013 | 0.13
5 | Cc1c(-c2cnc3cccc(-c4cc(F)c(CN5CCOCC5)c(F)c4)c3n2)cnn1C1CCNCC1 [Example 125, 8-(3,5-Difluoro-4-morpholin-4-ylmethyl-phenyl)-2-(5-methyl-1-piperidin-4-yl-1H-pyrazol-4-yl)-quinoxaline] | 0.369 | 0.21 | < 0.003 | 0.31
6 | Cc1nn(C2CCNCC2)c(C)c1-c1cnc2cccc(-c3ccc(CN4CCOCC4)cc3)c2n1 [Example 156, 2-(3,5-Dimethyl-1-piperidin-4-yl-1H-pyrazol-4-yl)-8-(4-morpholin-4-ylmethyl-phenyl)-quinoxaline] | – | > 10 | 0.95 | > 10
7 | Cc1nn(C2CCNCC2)c(C)c1-c1cnc2cccc(-c3ccc(CN4CCS(=O)(=O)CC4)cc3)c2n1 [Example 157, 2-(3,5-Dimethyl-1-piperidin-4-yl-1H-pyrazol-4-yl)-8-[4-(1,1-dioxido-thiomorpholin-4-ylmethyl)-phenyl]-quinoxaline] | – | 6.4 | 0.14 | 3.6
8 | Cc1cc(-c2cccc3ncc(-c4c(C)nn(C5CCNCC5)c4C)nc23)ccc1CN1CCOCC1 [Example 158, 2-(3,5-Dimethyl-1-piperidin-4-yl-1H-pyrazol-4-yl)-8-(3-methyl-4-morpholin-4-ylmethyl-phenyl)-quinoxaline] | – | > 10 | 0.65 | > 10
9 | COc1ccc(-c2cnc3cccc(-c4ccc(CN5CCS(=O)(=O)CC5)cc4)c3n2)cc1N1CCN(C)CC1 [Example 161, 8-[4-(1,1-Dioxido-thiomorpholin-4-ylmethyl)-phenyl]-2-[4-methoxy-3-(4-methyl-piperazin-1-yl)-phenyl]-quinoxaline] | – | 0.48 | < 0.003 | 0.11
10 | COc1ccc(-c2cnc3cccc(-c4cc(F)c(CN5CCOCC5)c(F)c4)c3n2)cc1N1CCN(C)CC1 [Example 162, 8-(3,5-Difluoro-4-morpholin-4-ylmethyl-phenyl)-2-[4-methoxy-3-(4-methyl-piperazin-1-yl)-phenyl]-quinoxaline] | – | 0.36 | 0.0057 | 0.069
11 | COc1ccc(-c2cnc3cccc(-c4cc(F)c(CN5CCS(=O)(=O)CC5)c(F)c4)c3n2)cc1N1CCN(C)CC1 [Example 163, 8-[4-(1,1-Dioxido-thiomorpholin-4-ylmethyl)-3,5-difluoro-phenyl]-2-[4-methoxy-3-(4-methyl-piperazin-1-yl)-phenyl]-quinoxaline] | – | 0.088 | < 0.003 | 0.077
12 | CN1CCN(C(=O)c2cccc(-c3cnc4cccc(-c5cc(F)c(CN6CCOCC6)c(F)c5)c4n3)c2)CC1 [Example 164, {3-[8-(3,5-Difluoro-4-morpholin-4-ylmethyl-phenyl)-quinoxalin-2-yl]-phenyl}-(4-methyl-piperazin-1-yl)-methanone] | – | 2 | 0.05 | 0.3
13 | CN1CCN(C(=O)c2cccc(-c3cnc4cccc(-c5ccc(CN6CCS(=O)(=O)CC6)cc5)c4n3)c2)CC1 [Example 165, (3-{8-[4-(1,1-Dioxido-thiomorpholin-4-ylmethyl)-phenyl]-quinoxalin-2-yl}-phenyl)-(4-methyl-piperazin-1-yl)-methanone] | – | 1.2 | 0.074 | 0.16
14 | CN1CCN(C(=O)c2cccc(-c3cnc4cccc(-c5cc(F)c(CN6CCS(=O)(=O)CC6)c(F)c5)c4n3)c2)CC1 [Example 166, (3-{8-[4-(1,1-Dioxido-thiomorpholin-4-ylmethyl)-3,5-difluoro-phenyl]-quinoxalin-2-yl}-phenyl)-(4-methyl-piperazin-1-yl)-methanone] | – | 0.27 | 0.011 | 0.07
15 | CN1CCN(C(=O)c2cc(-c3cnc4cccc(-c5cc(F)c(CN6CCOCC6)c(F)c5)c4n3)cn2C)CC1 [Example 167, {4-[8-(3,5-Difluoro-4-morpholin-4-ylmethyl-phenyl)-quinoxalin-2-yl]-1-methyl-1H-pyrrol-2-yl}-(4-methyl-piperazin-1-yl)-methanone] | – | 0.18 | 0.0081 | 0.053
16 | CN1CCN(C(=O)c2cc(-c3cnc4cccc(-c5cc(F)c(CN6CCS(=O)(=O)CC6)c(F)c5)c4n3)cn2C)CC1 [Example 168, (4-{8-[4-(1,1-Dioxido-thiomorpholin-4-ylmethyl)-3,5-difluoro-phenyl]-quinoxalin-2-yl}-1-methyl-1H-pyrrol-2-yl)-(4-methyl-piperazin-1-yl)-methanone] | – | 0.03 | < 0.003 | 0.016
17 | O=S1(=O)CCN(Cc2c(F)cc(-c3cccc4ncc(-c5cccc(N6CCNCC6)c5)nc34)cc2F)CC1 [Example 169, 8-[4-(1,1-Dioxido-thiomorpholin-4-ylmethyl)-3,5-difluoro-phenyl]-2-(3-piperazin-1-yl-phenyl)-quinoxaline] | – | 0.026 | < 0.003 | 0.017
18 | CC(C)(O)C#Cc1cnc2cccc(-c3cc(F)c(CN4CCS(=O)(=O)CC4)c(F)c3)c2n1 [Example 171, 4-{8-[4-(1,1-Dioxido-thiomorpholin-4-ylmethyl)-3,5-difluoro-phenyl]-quinoxalin-2-yl}-2-methyl-but-3-yn-2-ol] | – | 2 | 0.07 | 0.44
